Data as given in ChEMBL document CHEMBL1137182, “Ligand conformation has a definitive effect on 5-HT1A and serotonin reuptake affinity” (Bioorg Med Chem Lett, 2004).

What was measured:
[1] = molecular target: Sodium-dependent serotonin transporter (Homo sapiens, UniProt P31645); assay: Inhibitory activity against human- serotonin reuptake transmitter using [3H]-citalopram as a radioligand
[2] = Inhibitory activity against 5-hydroxytryptamine receptor 1A using (+/-)-[3H]-8-hydroxydipropylaminotetralin; parameters: species or system Homo sapiens

Sequence of Sodium-dependent serotonin transporter (P31645 whole entry): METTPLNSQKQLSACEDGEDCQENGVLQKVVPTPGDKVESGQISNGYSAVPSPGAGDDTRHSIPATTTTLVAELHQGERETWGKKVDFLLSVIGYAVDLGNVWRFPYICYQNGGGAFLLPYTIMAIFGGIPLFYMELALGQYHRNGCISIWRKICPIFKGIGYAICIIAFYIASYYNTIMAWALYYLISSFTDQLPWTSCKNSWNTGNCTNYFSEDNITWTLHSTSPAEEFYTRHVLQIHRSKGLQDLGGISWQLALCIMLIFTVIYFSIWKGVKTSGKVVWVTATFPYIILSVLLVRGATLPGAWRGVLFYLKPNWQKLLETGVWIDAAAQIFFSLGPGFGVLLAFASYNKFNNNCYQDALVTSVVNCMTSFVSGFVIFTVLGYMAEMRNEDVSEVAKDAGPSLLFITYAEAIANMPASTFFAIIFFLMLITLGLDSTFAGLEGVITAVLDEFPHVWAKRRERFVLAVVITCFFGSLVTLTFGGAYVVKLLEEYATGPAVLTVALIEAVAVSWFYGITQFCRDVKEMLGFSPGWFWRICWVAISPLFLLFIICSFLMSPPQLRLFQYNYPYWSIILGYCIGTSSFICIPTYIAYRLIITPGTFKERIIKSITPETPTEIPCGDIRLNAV

| IC50 [1] [nM] | IC50 [2] [nM] | SMILES |
| --- | --- | --- |
| 54 | 9.6 | O=C1O[C@]2(CC[C@@H](N3CCN(Cc4ccccc4I)CC3)CC2)c2ccc3c(c21)OCCO3 |
| 430 | 11 | COc1ccc(F)c(CC2CCN([C@H]3CC[C@]4(CC3)OC(=O)c3c5c(ccc34)OCCO5)CC2)c1 |
| 510 | 43 | O=C1O[C@]2(CC[C@@H](N3CCC(Cc4ccccc4C(F)(F)F)CC3)CC2)c2ccc3c(c21)OCCO3 |
| 48 | 9.6 | O=C1O[C@]2(CC[C@@H](N3CCN(Cc4ccccc4I)CC3)CC2)c2ccc3c(c21)OCO3 |
| 23 | > 1000 | Oc1nc2cc3c(cc2c2c1[C@@H](N1CCN(Cc4ccccc4I)CC1)CCC2)OCO3 |
| 250 | 22 | O=C1O[C@]2(CC[C@@H](N3CCC(Cc4cc(F)ccc4F)CC3)CC2)c2ccc3c(c21)OCO3 |
| 45 | 9.6 | O=C1O[C@]2(CC[C@@H](N3CCC(Cc4ccccc4Br)CC3)CC2)c2ccc3c(c21)OCO3 |
| 14 | 450 | Oc1nc2cc3c(cc2c2c1[C@@H](N1CCC(Cc4cc(F)ccc4F)CC1)CCC2)OCO3 (stereo in doubt; 4o) |
| 110 | 14 | O=C1O[C@]2(CC[C@@H](N3CCC(Cc4cc(F)ccc4F)CC3)CC2)c2ccc3c(c21)OCCO3 |
| 140 | 10 | O=C1O[C@]2(CC[C@@H](N3CCC(Cc4ccccc4Cl)CC3)CC2)c2ccc3c(c21)OCO3 |
| 410 | 14 | O=C1O[C@]2(CC[C@@H](N3CCC(Cc4ccccc4F)CC3)CC2)c2ccc3c(c21)OCO3 |
| 5 | 440 | Oc1nc2cc3c(cc2c2c1[C@@H](N1CCC(Cc4cc(F)ccc4F)CC1)CCC2)OCO3 (stereo in doubt; 3o) |
| 180 | 67 | O=C1O[C@]2(CC[C@@H](N3CCC(Cc4ccccc4C(F)(F)F)CC3)CC2)c2ccc3c(c21)OCO3 |
| 59 | 4.3 | COc1ccccc1CC1CCN([C@H]2CC[C@]3(CC2)OC(=O)c2c4c(ccc23)OCCO4)CC1 |
| 100 | 19 | O=C1O[C@]2(CC[C@@H](N3CCC(Cc4ccccc4Cl)CC3)CC2)c2ccc3c(c21)OCCO3 |
| 150 | 6.7 | COc1ccccc1CC1CCN([C@H]2CC[C@]3(CC2)OC(=O)c2c4c(ccc23)OCO4)CC1 |
| 480 | 12 | O=C1O[C@]2(CC[C@@H](N3CCC(Cc4ccccc4F)CC3)CC2)c2ccc3c(c21)OCCO3 |
| 77 | 11 | O=C1O[C@]2(CC[C@@H](N3CCC(Cc4cc(F)ccc4Br)CC3)CC2)c2ccc3c(c21)OCCO3 |
| 91 | 2.4 | COc1ccc(Br)c(CC2CCN([C@H]3CC[C@]4(CC3)OC(=O)c3c5c(ccc34)OCO5)CC2)c1 |
| 400 | – | COc1ccc(F)c(CC2CCN([C@H]3CC[C@]4(CC3)OC(=O)c3c5c(ccc34)OCO5)CC2)c1 |
| 73 | 9.8 | O=C1O[C@]2(CC[C@@H](N3CCC(Cc4ccccc4Br)CC3)CC2)c2ccc3c(c21)OCCO3 |
| 92 | 2.3 | O=C1O[C@]2(CC[C@@H](N3CCC(Cc4cc(Cl)ccc4Cl)CC3)CC2)c2ccc3c(c21)OCO3 |
| 82 | 14 | O=C1O[C@]2(CC[C@@H](N3CCC(Cc4cc(F)ccc4Br)CC3)CC2)c2ccc3c(c21)OCO3 |
